From ChEMBL document CHEMBL1153977, “Fluorinated non-imidazole histamine H3 receptor antagonists” (Bioorg Med Chem Lett, 2009)

Assays:
[1] = biological target: Histamine H3 receptor (Homo sapiens, UniProt Q9Y5N1); assay: Displacement of [125I]iodoproxyfan from human histamine H3 receptor expressed in […] cells; format: cell-based, HEK293
[2] = tested on: Mus musculus; assay: In vivo histamine H3 receptor potency in po dosed Swiss mouse assessed as N'-methylhistamine level; format: functional

Sequence of Histamine H3 receptor (Q9Y5N1 whole entry): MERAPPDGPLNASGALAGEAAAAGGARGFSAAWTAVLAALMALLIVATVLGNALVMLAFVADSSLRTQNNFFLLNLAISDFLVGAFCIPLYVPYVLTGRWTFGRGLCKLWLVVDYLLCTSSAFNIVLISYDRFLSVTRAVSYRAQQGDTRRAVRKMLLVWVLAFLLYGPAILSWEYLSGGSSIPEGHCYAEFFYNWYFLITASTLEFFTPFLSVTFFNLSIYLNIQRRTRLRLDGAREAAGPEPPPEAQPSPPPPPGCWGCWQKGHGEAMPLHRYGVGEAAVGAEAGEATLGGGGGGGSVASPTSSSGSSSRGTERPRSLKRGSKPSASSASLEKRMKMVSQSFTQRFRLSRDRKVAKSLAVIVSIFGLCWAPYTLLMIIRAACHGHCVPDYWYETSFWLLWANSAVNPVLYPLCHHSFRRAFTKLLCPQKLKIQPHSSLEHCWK

Row | SMILES | Ki [1] [nM] | ED50 [2] [mg/kg]
1 | N#Cc1ccc(OCCCN2CCCCC2)cc1 | 11 | 0.2
2 | c1cc(CN2CCCCC2)ccc1COc1ccc(CN2CCCCC2)cc1 |  | 9.6
3 | FCCc1ccc(OCCCN2CCCCC2)cc1 | 43 | 
4 | F[C@@H]1CCN(Cc2ccc(OCCCN3CCCC3)cc2)C1 | 0.31 | 
5 | FCc1ccc(OCCCN2CCCCC2)cc1 | 17.3 | 
6 | F[C@@H]1CCN(Cc2ccc(OCCCN3CCCCC3)cc2)C1 | 0.28 | 
7 | FC1CCN(CCCOc2ccc(CN3CCCC3)cc2)CC1 | 0.99 | 
8 | FC1(F)CCN(Cc2ccc(OCCCN3CCCCC3)cc2)CC1 | 0.24 | 0.4
9 | ClC1CCN(Cc2ccc(OCCCN3CCCCC3)cc2)CC1 | 0.068 | 
10 | CS(=O)(=O)OC1CCN(Cc2ccc(OCCCN3CCCCC3)cc2)CC1 | 0.84 | 
11 | F[C@H]1CCN(Cc2ccc(OCCCN3CCCCC3)cc2)C1 | 0.28 | 3.9
12 | N#Cc1ccc(OCCCN2CCC(F)(F)CC2)cc1 | > 1000 | 
13 | BrC1CCN(Cc2ccc(OCCCN3CCCCC3)cc2)CC1 | 0.2 | 
14 | FC1CCN(Cc2ccc(OCCCN3CCCCC3)cc2)CC1 | 0.094 | 7.4
15 | FC1CCN(Cc2ccc(OCCCN3CCCC3)cc2)CC1 | 0.26 | 12
16 | c1cc(OCCCN2CCCCC2)ccc1CN1CCCCC1 [JNJ-5207852] |  | 0.12
17 | Clc1ccc(CCCOCCCN2CCCCC2)cc1 [PITOLISANT] |  | 1.5
